Test: Example 2: phase 3 trial, enavogliflozin 0.3 mg vs dapagliflozin 10 mg once a day for 24 weeks added to metformin in patients with type 2 diabetes (same efficacy, exploratory and safety endpoints)
Format: in vivo, human
Experimental: Subjects who met the inclusion/exclusion criteria were administered a placebo of the clinical trial drug under single-blind (subject blinding) conditions during a 2-week run-in period while continuing to receive metformin. […] The randomized subjects were administered two tablets of the clinical trial drug for each administration group once a day, and then visited the institution at weeks 6, 12, 18, and 24 during the 24-week administration period to conduct efficacy and safety evaluations.
• 1. Change in HbA1c at week 24 after administration of clinical trial drug compared to Visit 2 (randomization)
• 1. Change in HbA1c at each time point of weeks 6, 12, and 18 after administration of clinical trial drug compared to Visit 2 (randomization) • 2. Change in FPG at each time point of weeks 6, 12, 18, and 24 after administration of clinical trial drug compared to Visit 2 (randomization) • 3. Proportion of subjects achieving HbA1c<7% at each time point of weeks 6, 12, 18, and 24 after administration of clinical trial drug • 4. Proportion of subjects achieving HbA1c<6.5% at each time point of weeks 6, 12, 18, and 24 after administration of clinical trial drug • 5. Proportion of subjects achieving therapeutic response (HbA1c change (HbA1c at Visit 2-HbA1c at each evaluation time point)>0.5% or HbA1c<7% at each evaluation time point compared to Visit 2 (randomization)) at each time point of weeks 6, 12, 18 and 24 after administration of clinical trial drug
• 1. Change in fasting c-peptide at each time point of weeks 6, 12, 18, and 24 after administration of clinical trial drug compared to Visit 2 (randomization) • 2. Change in body weight at each time point of weeks 6, 12, 18, and 24 after administration of clinical trial drug compared to Visit 2 (randomization) • 3. Change in fasting lipid concentration (total cholesterol, LDL-C, HDL-C, and triglycerides) at each time point of weeks 6, 12, 18, and 24 after administration of clinical trial drug compared to Visit 2 (randomization) • 4. Changes in systolic or diastolic blood pressure at each time point of weeks 6, 12, 18, and 24 after administration of clinical trial drug compared to Visit 2 (randomization) • 5. Changes in β-cell function and insulin resistance measured by HOMA-β and HOMA-IR at each time point of weeks 6, 12, 18, and 24 after administration of clinical trial drug compared to Visit 2 (randomization) • 6. Changes in renal function-related indicators (UACR, UGCR) measured by UACR at each time point of weeks 6, 12, 18, and 24 after administration of clinical trial drug compared to Visit 2 (randomization) • 7. Changes in obesity-related indicators (adiponectin, leptin) at each time point of weeks 6, 12, 18, and 24 after administration of clinical trial drug compared to Visit 2 (randomization)

[1] = Baseline, modified per-protocol set 1, enavogliflozin 0.3 mg, dapagliflozin 10 mg
[2] = Baseline, per-protocol set, enavogliflozin 0.3 mg, dapagliflozin 10 mg

CCOc1ccc(Cc2cc([C@@H]3O[C@H](CO)[C@@H](O)[C@H](O)[C@H]3O)ccc2Cl)cc1 [Dapagliflozin, reference compound]
Incidence of serious adverse drug reactions (24 weeks): 7 case
Adiponectin, Mean (SD) (Baseline, PPS): 6.6 µg/mL
Adiponectin, Median (Baseline, PPS): 5.94 µg/mL
HOMA-IR, Mean (SD) (Baseline, PPS): 3.85
HOMA-IR, Median (Baseline, PPS): 3.05
HOMA-β, Mean (SD) (Baseline, PPS): 44.44
HOMA-β, Median (Baseline, PPS): 38.75
Leptin, Mean (SD) (Baseline, PPS): 11.76 ng/mL
Leptin, Median (Baseline, PPS): 8.32 ng/mL
UACR, Mean (SD) (Baseline, PPS): 57420 mg/kg
UACR, Median (Baseline, PPS): 15.50 g/kg
UGCR, Mean (SD) (Baseline, PPS): 1.83 mg/mg
UGCR, Median (Baseline, PPS): 0.15 mg/mg
HDL-C, Mean (SD) (Baseline, mPPS1): 46.90(9.17) mg/dL
HDL-C, Median (Baseline, mPPS1): 46.00 mg/dL
LDL-C, Mean (SD) (Baseline, mPPS1): 76.16(26.27) mg/dL
LDL-C, Median (Baseline, mPPS1): 75.00 mg/dL
Triglycerides, Mean (SD) (Baseline, mPPS1): 132.92(75.63) mg/dL
Triglycerides, Median (Baseline, mPPS1): 115.00 mg/dL
Diastolic blood pressure, Mean (SD) (Baseline, mPPS2): 75.92 mmHg
Diastolic blood pressure, Median (Baseline, mPPS2): 75.00 mmHg
Systolic blood pressure, Mean (SD) (Baseline, mPPS2): 127.44(14.12) mmHg
Systolic blood pressure, Median (Baseline, mPPS2): 127.00 mmHg
fasting Total cholesterol, Mean (SD) [1]: 137.87(26.64) mg/dL
fasting Total cholesterol, Median [1]: 139.00 mg/dL
FPG, Mean (SD) [2]: 149.33 mg/dL
FPG, Median [2]: 142.00 mg/dL
HbA1c, Mean (SD) [2]: 7.68%
HbA1c, Median [2]: 7.49%
body weight, Mean (SD) [2]: 70.52(11.81) kg
body weight, Median [2]: 69.70 kg
fasting c-peptide, Mean (SD) [2]: 0.74(0.23) ng/mL
fasting c-peptide, Median [2]: 0.71 ng/mL
Adiponectin change from baseline, ANCOVA LS mean (SE) (Week 6, PPS): 0.8 µg/mL
Adiponectin change from baseline, Mean (SD) (Week 6, PPS): 0.77 µg/mL
Adiponectin change from baseline, Median (Week 6, PPS): 0.51 ng/mL
Adiponectin, Mean (SD) (Week 6, PPS): 7.4 µg/mL
Adiponectin, Median (Week 6, PPS): 6.36 µg/mL
HOMA-IR change from baseline, ANCOVA LS mean (SE) (Week 6, PPS): −1.31
HOMA-IR change from baseline, Mean (SD) (Week 6, PPS): −1.46
HOMA-IR change from baseline, Median (Week 6, PPS): −1.03
HOMA-IR, Mean (SD) (Week 6, PPS): 2.34
HOMA-IR, Median (Week 6, PPS): 2.07
HOMA-β change from baseline, ANCOVA LS mean (SE) (Week 6, PPS): −1.79
HOMA-β change from baseline, Mean (SD) (Week 6, PPS): −2.83
HOMA-β change from baseline, Median (Week 6, PPS): 1.10
HOMA-β, Mean (SD) (Week 6, PPS): 41.10
HOMA-β, Median (Week 6, PPS): 42.20
Leptin change from baseline, ANCOVA LS mean (SE) (Week 6, PPS): -1.62 ng/mL
Leptin change from baseline, Mean (SD) (Week 6, PPS): -1.61 ng/mL
Leptin change from baseline, Median (Week 6, PPS): -1.46 ng/mL
Leptin, Mean (SD) (Week 6, PPS): 9.85 ng/mL
Leptin, Median (Week 6, PPS): 5.51 ng/mL
UACR change from baseline, ANCOVA LS mean (SE) (Week 6, PPS): 8.13 g/kg
UACR change from baseline, Mean (SD) (Week 6, PPS): 4490 mg/kg
UACR change from baseline, Median (Week 6, PPS): 0.00 g/kg
UACR, Mean (SD) (Week 6, PPS): 62950 mg/kg
UACR, Median (Week 6, PPS): 13.90 g/kg
UGCR change from baseline, ANCOVA LS mean (SE) (Week 6, PPS): 50.10 mg/mg
UGCR change from baseline, Mean (SD) (Week 6, PPS): 47.54 mg/mg
UGCR change from baseline, Median (Week 6, PPS): 42.30 mg/mg
UGCR, Mean (SD) (Week 6, PPS): 48.64 mg/mg
UGCR, Median (Week 6, PPS): 43.08 mg/mg
HDL-C change from baseline, ANCOVA LS mean (SE) (Week 6, mPPS1): 1.60(0.61) mg/dL
HDL-C change from baseline, Mean (SD) (Week 6, mPPS1): 1.94(5.62) mg/dL
HDL-C change from baseline, Median (Week 6, mPPS1): 1.00 mg/dL
HDL-C, Mean (SD) (Week 6, mPPS1): 48.83(10.55) mg/dL
HDL-C, Median (Week 6, mPPS1): 48.50 mg/dL
LDL-C change from baseline, ANCOVA LS mean (SE) (Week 6, mPPS1): 4.20(1.95) mg/dL
LDL-C change from baseline, Mean (SD) (Week 6, mPPS1): 4.87(19.92) mg/dL
LDL-C change from baseline, Median (Week 6, mPPS1): 3.00 mg/dL
LDL-C, Mean (SD) (Week 6, mPPS1): 81.20(28.87) mg/dL
LDL-C, Median (Week 6, mPPS1): 76.50 mg/dL
Triglycerides change from baseline, ANCOVA LS mean (SE) (Week 6, mPPS1): −10.14(7.09) mg/dL
Triglycerides change from baseline, Mean (SD) (Week 6, mPPS1): −11.86(54.93) mg/dL
Triglycerides change from baseline, Median (Week 6, mPPS1): -2.00 mg/dL
Triglycerides, Mean (SD) (Week 6, mPPS1): 120.41(53.12) mg/dL
Triglycerides, Median (Week 6, mPPS1): 104.50 mg/dL
Diastolic blood pressure change from baseline, ANCOVA LS mean (SE) (Week 6, mPPS2): −1.47 mmHg
Diastolic blood pressure change from baseline, Mean (SD) (Week 6, mPPS2): −1.10 mmHg
Diastolic blood pressure change from baseline, Median (Week 6, mPPS2): 0.00 mmHg
Diastolic blood pressure, Mean (SD) (Week 6, mPPS2): 74.57 mmHg
Diastolic blood pressure, Median (Week 6, mPPS2): 75.00 mmHg
Systolic blood pressure change from baseline, ANCOVA LS mean (SE) (Week 6, mPPS2): −2.71(1.06) mmHg
Systolic blood pressure change from baseline, Mean (SD) (Week 6, mPPS2): −1.98(11.14) mmHg
Systolic blood pressure change from baseline, Median (Week 6, mPPS2): −1.50 mmHg
Systolic blood pressure, Mean (SD) (Week 6, mPPS2): 125.24(13.01) mmHg
Systolic blood pressure, Median (Week 6, mPPS2): 126.00 mmHg
Adiponectin change from baseline, ANCOVA LS mean (SE) (Week 12, PPS): 1.02 µg/mL
Adiponectin change from baseline, Mean (SD) (Week 12, PPS): 1.08 µg/mL
Adiponectin change from baseline, Median (Week 12, PPS): 0.83 ng/mL
Adiponectin, Mean (SD) (Week 12, PPS): 7.76 µg/mL
Adiponectin, Median (Week 12, PPS): 6.53 µg/mL
HOMA-IR change from baseline, ANCOVA LS mean (SE) (Week 12, PPS): −1.60
HOMA-IR change from baseline, Mean (SD) (Week 12, PPS): −1.74
HOMA-IR change from baseline, Median (Week 12, PPS): −1.27
HOMA-IR, Mean (SD) (Week 12, PPS): 2.17
HOMA-IR, Median (Week 12, PPS): 1.89
HOMA-β change from baseline, ANCOVA LS mean (SE) (Week 12, PPS): 8.75
HOMA-β change from baseline, Mean (SD) (Week 12, PPS): 8.97
HOMA-β change from baseline, Median (Week 12, PPS): 4.55
HOMA-β, Mean (SD) (Week 12, PPS): 53.77
HOMA-β, Median (Week 12, PPS): 45.50

From patent US20260130933A1, “PHARMACEUTICAL COMPOSITION FOR PREVENTION OR TREATMENT OF NEPHROPATHY AND/OR DIABETES MELLITUS, COMPRISING ENAVOGLIFLOZIN” (DAEWOONG PHARMACEUTICAL CO., LTD., priority 2022, published 2026)
